Key:
recombinant human MAO-B = molecular target: T1, recombinant human MAO-B (Homo sapiens, UniProt P27338); assay: Human MAO-B inhibitory assay (kynuramine, fluorescence of 4-hydroxyquinoline); type: biochemical; conditions: for Ki: from IC50 by Cheng–Prusoff, Km 22.7 μM; for Si MAO-B (selectivity index between MAO-A and MAO-B): ratio of Ki values; for Isoform selectivity from the selectivity index, MAO-B: based on Si; for IC50: recombinant human MAO-B, kynuramine, pH 7.4, 37 °C, 20 min, mean ± SD
T1 construct: purchased Sigma-Aldrich
T1 sequence (P27338 1-520): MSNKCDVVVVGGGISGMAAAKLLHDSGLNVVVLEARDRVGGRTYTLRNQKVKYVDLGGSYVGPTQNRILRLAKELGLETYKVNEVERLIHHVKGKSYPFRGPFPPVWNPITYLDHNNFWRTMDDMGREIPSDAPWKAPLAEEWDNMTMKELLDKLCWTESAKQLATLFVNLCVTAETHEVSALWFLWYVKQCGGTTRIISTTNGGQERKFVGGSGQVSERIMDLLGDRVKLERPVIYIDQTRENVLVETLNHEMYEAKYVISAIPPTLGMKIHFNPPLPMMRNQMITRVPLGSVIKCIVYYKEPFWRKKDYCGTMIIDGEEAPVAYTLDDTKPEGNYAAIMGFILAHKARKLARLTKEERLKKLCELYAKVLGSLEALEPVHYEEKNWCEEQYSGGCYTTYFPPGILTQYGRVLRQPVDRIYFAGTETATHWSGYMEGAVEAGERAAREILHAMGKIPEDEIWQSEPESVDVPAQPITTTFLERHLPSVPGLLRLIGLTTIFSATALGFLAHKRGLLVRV
Method: (§1) The crude ethanol extract of A. philoxeroides, together with its constituents, alternanthin (1a), althernanthin B (1b), torosaflavone E (3a), dimethyltorosaflavone D (3b) and chrysoeriol 7-rhamnoside (5) were tested for their inhibitory activity on MAO-A and MAO-B, using the recombinant human MAO-A and MAO-B. The rates of MAO catalysis was determined by measuring the production of 4-hydroxyquinoline by fluorescence spectrophotometry. […] For this purpose, Km values for the oxidation of kynuramine by MAO-A and MAO-B were used from previous studies, i.e., 16.1 μM for human MAO-A and 22.7 μM for human MAO-B [15].
(§2) The MAOs inhibitory activity assay of the A. philoxeroides extract and some of its flavonoid constituents, using recombinant human MAO-A and MAO-B (Sigma-Aldrich, St. Louis, MO, USA) as enzyme sources, was performed according to the method described by Manley-King et al.. Briefly, the crude extract 100 mg was dissolved in 400 µL DMSO to prepare 250 mg/mL as a stock solution. Serial dilution of test samples (20 µL) for each concentration was used to test the activity. For 1a, 1b, 3a, 3b and 5, a stock solution of 1000 μM in DMSO was prepared and a serial dilution of the test sample (20 μL) of each concentration was used to test the activity. Concentration of MAOs was 0.0075 mg/mL for MAO-A inhibitor test, 9 µL of kynuramine (Sigma-Aldrich, St. Louis, MO, USA) was mixed with 469.5 µL of potassium phosphate buffer (pH 7.4). For MAO-B inhibitor test, 6 µL of kynuramine was mixed with 472.5 µL of potassium phosphate buffer (pH 7.4). Then 1.5 µL of the enzymes were added before incubation at 37 °C for 20 min. The reaction was stopped by adding 400 µL of 2N NaOH and 1000 µL of water. Measurement of 4-hydroxyquinoline (Sigma-Aldrich, St. Louis, MO, USA) was carried out by fluorescence spectrophotometry with the excitation wavelength at 310 nm and the emission wavelength at 400 nm. […] Data were analyzed by Prism 5 software package (GraphPad Software, version 5, San Diego, CA, USA). The IC50 values were converted to the corresponding Ki values according to the equation Ki = IC50/(1+[S]/Km).

recombinant human MAO-A = molecular target: T2, recombinant human MAO-A (Homo sapiens, UniProt P21397); assay: Human MAO-A inhibitory assay (kynuramine, fluorescence of 4-hydroxyquinoline); type: biochemical; conditions: for Ki: from IC50 by Cheng–Prusoff, Km 16.1 μM; for Si MAO-A (selectivity index between MAO-A and MAO-B): ratio of Ki values; for IC50: recombinant human MAO-A, kynuramine, pH 7.4, 37 °C, 20 min, mean ± SD
T2 construct: purchased Sigma-Aldrich
T2 sequence (P21397 1-527): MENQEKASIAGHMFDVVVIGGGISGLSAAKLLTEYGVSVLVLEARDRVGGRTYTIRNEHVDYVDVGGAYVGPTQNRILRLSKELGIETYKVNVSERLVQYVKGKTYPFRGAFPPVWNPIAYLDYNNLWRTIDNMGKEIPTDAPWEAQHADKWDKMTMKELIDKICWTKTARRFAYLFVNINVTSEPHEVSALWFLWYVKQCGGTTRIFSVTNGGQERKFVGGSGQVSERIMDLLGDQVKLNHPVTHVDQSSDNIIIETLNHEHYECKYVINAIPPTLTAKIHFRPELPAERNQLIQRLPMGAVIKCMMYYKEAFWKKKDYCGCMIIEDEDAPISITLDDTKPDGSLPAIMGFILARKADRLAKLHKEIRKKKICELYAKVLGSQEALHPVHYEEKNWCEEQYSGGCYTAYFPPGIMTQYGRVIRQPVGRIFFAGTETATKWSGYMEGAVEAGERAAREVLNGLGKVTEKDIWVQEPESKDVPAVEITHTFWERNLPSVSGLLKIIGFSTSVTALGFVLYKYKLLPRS
Method: as §1, §2

| Ki (recombinant human MAO-B) [nM] | Si MAO-B (selectivity index between MAO-A and MAO-B) (recombinant human MAO-B) | Isoform selectivity from the selectivity index, MAO-A (recombinant human MAO-A; based on Si) | Ki (recombinant human MAO-A) [nM] | Si MAO-A (selectivity index between MAO-A and MAO-B) (recombinant human MAO-A) | Isoform selectivity from the selectivity index, MAO-B (recombinant human MAO-B) | IC50 (recombinant human MAO-A) [nM] | IC50 (recombinant human MAO-B) [nM] | melting point [°C] | SMILES |
| --- | --- | --- | --- | --- | --- | --- | --- | --- | --- |
| 0.26 | 2.1364 | partially selective for MAO-A isoform | 0.12 | 0.4681 | – | – | – | – | COc1cc(-c2cc(=O)c3c(O)c([C@H]4C[C@H](O)[C@@H](O)[C@@H](C)O4)c(O)cc3o2)ccc1O [Compound 1a, altheranthin] |
| 0.1 | 0.1764 | – | 0.54 | 5.6681 | partially selective for MAO-B isoform | 2.06 | – | – | C[C@H]1O[C@@H](c2c(O)cc3oc(-c4ccc(O)c(O)c4)cc(=O)c3c2O)C[C@H](O)[C@H]1O [Compound 1b, alternanthin B] |
| 290 | 0.0601 | – | 4840 | 16.6534 | partially selective for MAO-B isoform | 18400 ± 1470 | 675 ± 460 | 250 to 252 | COc1cc(-c2cc(=O)c3c(O)c(/C=C/C(=O)O)c(O)cc3o2)ccc1O [Compound 3a, torosaflavone E] |
| 55.7 | 0.4193 | – | 133 | 2.3850 | partially selective for MAO-B isoform | – | 129 | – | O=C(O)/C=C/c1c(O)cc2oc(-c3ccc(O)c(O)c3)cc(=O)c2c1O [Compound 3b, demethyltorosaflavone D] |
| 234 | 0.2915 | – | 804 | 3.4303 | partially selective for MAO-B isoform | 3050 ± 350 | 544 ± 330 | – | COc1cc(-c2cc(=O)c3c(O)cc(O[C@@H]4O[C@@H](C)[C@H](O)[C@@H](O)[C@H]4O)cc3o2)ccc1O [Compound 5, chrysoeriol 7-O-rhamnoside] |
